Measurements from patent US8202865B2, “Oxadiazole derivatives” (Merck Serono SA, priority 2007, dated 2012).
pEC50, pKi: −log10 of the molar value. Structures can show the parent of a compound that is named as a salt.

Columns and labels:
S1P3 = biological target: T1, S1P3 (Homo sapiens, UniProt Q99500); experiment: 35S-GTPγS binding, S1P3 membranes; type: biochemical; settings: membranes from CHO cells expressing S1P3; 60 min 30° C.
T1 construct: expressed in transfected cells; host or cells: CHO cells (membranes)
Experimental: (§1) Receptor binding assay: Membranes were prepared from CHO cells expressing S1P1 or S1P3 for use in ligand and […] binding studies. Cells were suspended in 50 mM TRIS, pH 7.4, 2 mM EDTA, 250 mM Sucrose (buffer A) and 1× Complete protease inhibitor cocktail (Roche), and disrupted at 4° C. by N2 decompression using a cell disruption bomb (Parr Instrument). Following centrifugation at 1000 RPM for 10 min at 4° C., the supernatant was suspended in buffer A and centrifuged again at 19000 RPM for 60 min at 4° C. The pellet was then suspended in 10 mM HEPES, pH 7.4, 1 mM EDTA, 250 mM Sucrose (Buffer B), and 1× Complete EDTA-free protease inhibitor cocktail and homogenized using a potter. Membranes were flash frozen in liquid N2 and stored at −80° C. [33P]sphingosine 1-phosphate (3000 Ci/mmol; American Radiolabeled Chemicals, Inc.) was added to test compounds in DMSO. Membranes and WGA SPA beads (GE Healthcare) were added to give a final volume of 100 μl in 96-well plates with assay concentrations of 25 pM or 10 pM [33P]sphingosine 1-phosphate (respectively for S1P1 or S1P3), 50 mM HEPES, pH 7.5, 5 mM MgCl2, 100 mM NaCl, 0.4% fatty acid-free BSA, 1-5 μg/well of proteins and 100 μg/well of WGA SPA beads. Binding was performed for 60 min at RT on a shaker and bound radioactivity was measured on a PerkinElmer 1450 MicroBeta counter. Specific binding was calculated by subtracting remaining radioactivity in the presence of 1000-fold excess of unlabeled S1P. Binding data were analyzed using the GraphPad Prism program.
Measurements of ^35S-GTPγS Binding: Membranes (1 to 10 μg protein) prepared as described above, were incubated in 96-well Scintiplates (PerkinElmer) with test compounds diluted in DMSO, in 180 μl of 20 mM HEPES, pH 7.4, 10 mM MgCl2, 2 μg/well Saponin, 0.2% fatty acid free BSA (Assay buffer), 140 mM NaCl and 1.7 μM GDP. The assay was initiated with the addition of 20 μl of 1.5 nM [35S]-GTPγS (1100 Ci/mmol; GE Healthcare) in assay buffer. After 60 min incubation at 30° C. on a shaker, plates were centrifuged for 10 min at 2000 RPM. Supernatant was discarded and membrane bound radioactivity was measured on a PerkinElmer 1450 MicroBeta counter. Triplicate samples were averaged and expressed as % response relative to S1P activation in absence of compound (n=2).

S1P1 [1] = biological target: T2, S1P1 (Homo sapiens, UniProt P21453); experiment: 35S-GTPγS binding, S1P1 membranes; type: biochemical; settings: membranes from CHO cells expressing S1P1; 60 min 30° C.
T2 construct: expressed in transfected cells; host or cells: CHO cells (membranes)
Method in brief: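 CHO-cell membranes expressing S1P1 or S1P3 (1-10 μg) incubated with compounds in 20 mM HEPES pH 7.4, 10 mM MgCl2, 140 mM NaCl, saponin, 0.2% BSA, 1.7 μM GDP and [35S]-GTPγS (20 μl of 1.5 nM added), 60 min at 30° C. Bound radioactivity expressed as % of S1P activation.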

S1P1 [2] = biological target: T2, S1P1; experiment: Receptor binding assay, [33P]sphingosine 1-phosphate, membranes, WGA SPA beads; settings: membranes from CHO cells expressing S1P1; 25 pM [33P]S1P; 60 min RT
Experimental: as §1

T1 sequence (Q99500 whole entry, species assumed): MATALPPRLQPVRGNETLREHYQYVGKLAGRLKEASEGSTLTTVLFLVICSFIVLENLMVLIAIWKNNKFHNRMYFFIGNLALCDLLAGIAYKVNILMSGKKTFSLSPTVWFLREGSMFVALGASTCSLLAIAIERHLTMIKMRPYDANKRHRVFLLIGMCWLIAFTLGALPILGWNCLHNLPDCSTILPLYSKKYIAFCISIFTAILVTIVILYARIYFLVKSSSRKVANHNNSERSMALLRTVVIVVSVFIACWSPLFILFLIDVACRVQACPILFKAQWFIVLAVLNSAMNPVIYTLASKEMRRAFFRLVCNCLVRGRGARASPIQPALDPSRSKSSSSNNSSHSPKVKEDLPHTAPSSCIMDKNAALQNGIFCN
T2 sequence (P21453 whole entry, species assumed): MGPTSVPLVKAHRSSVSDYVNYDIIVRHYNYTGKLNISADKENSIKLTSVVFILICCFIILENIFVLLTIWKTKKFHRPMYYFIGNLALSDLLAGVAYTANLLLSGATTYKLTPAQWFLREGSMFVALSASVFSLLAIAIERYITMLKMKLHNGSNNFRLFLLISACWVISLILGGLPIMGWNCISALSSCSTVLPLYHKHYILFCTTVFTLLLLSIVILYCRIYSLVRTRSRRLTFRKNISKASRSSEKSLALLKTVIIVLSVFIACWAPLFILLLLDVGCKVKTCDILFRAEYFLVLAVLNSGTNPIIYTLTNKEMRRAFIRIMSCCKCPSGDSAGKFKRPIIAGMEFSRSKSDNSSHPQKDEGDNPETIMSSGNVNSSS

Structure (SMILES) | pEC50 (S1P3) | pEC50 (S1P1 [1]) | pKi (S1P1 [2])
COCc1cc(-c2nc(-c3cccc(C(=O)O)c3)no2)ccc1-c1ccccc1C [Example 92, 3-{5-[2-(methoxymethyl)-2′-methylbiphenyl-4-yl]-1,2,4-oxadiazol-3-yl}benzoic acid] | 5.90 | 7.20 | 7.43
Cc1ccccc1-c1ccc(-c2nc(-c3ccc(C(=O)O)cc3F)no2)cc1C [Example 10, 4-[5-(2,2′-dimethylbiphenyl-4-yl)-1,2,4-oxadiazol-3-yl]-3-fluorobenzoic acid] | < 4.52 | 5.45 | 6.48
CC1CCCCN1c1ccc(-c2nc(-c3ccc(C(=O)O)c(F)c3)no2)cc1NS(C)(=O)=O (stereo not drawn) [Example 30, 2-fluoro-4-(5-{4-(2-methylpiperidin-1-yl)-3-[(methylsulfonyl)amino]phenyl}-1,2,4-oxadiazol-3-yl)benzoic acid] | 5.23 | 7.30 | 7.40
COc1cc(-c2nc(-c3ccc(C(=O)O)c(F)c3)no2)ccc1-c1ccccc1C [Example 13, 2-fluoro-4-[5-(2-methoxy-2′-methylbiphenyl-4-yl)-1,2,4-oxadiazol-3-yl]benzoic acid] | < 4.52 | 6.47 | 6.89
Cc1cc(-c2nc(-c3ccc(C(=O)O)cc3F)no2)ccc1-c1cscc1C [Example 26, 3-fluoro-4-{5-[3-methyl-4-(4-methyl-3-thienyl)phenyl]-1,2,4-oxadiazol-3-yl}benzoic acid] | < 4.70 | 6.44 | 6.76
COCc1cc(-c2nc(-c3cccc(S(C)(=O)=O)c3)no2)ccc1-c1ccccc1C [Example 194, 5-[2-(methoxymethyl)-2′-methylbiphenyl-4-yl]-3-[3-(methylsulfonyl)phenyl]-1,2,4-oxadiazole] | 5.77 | 9.00 | 8.80
COCc1cc(-c2nc(-c3cccc(S(N)(=O)=O)c3)no2)ccc1-c1ccccc1C [Example 170, 3-{5-[2-(methoxymethyl)-2′-methylbiphenyl-4-yl]-1,2,4-oxadiazol-3-yl}benzenesulfonamide] | 6.67 | 9.15 | 9.10
Cc1ccccc1-c1ccc(-c2nc(-c3ccc(C(=O)O)c(F)c3)no2)cc1CN(C)C [Example 62, 4-(5-{2-[(dimethylamino)methyl]-2′-methylbiphenyl-4-yl}-1,2,4-oxadiazol-3-yl)-2-fluorobenzoic acid, Hydrochloride salt] | 6.16 | 7.04 | 7.62
COCc1cc(-c2nc(-c3cccc(CN(C)CC(=O)O)c3)no2)ccc1OC(C)C [Example 148, N-(3-{5-[4-isopropoxy-3-(methoxymethyl)phenyl]-1,2,4-oxadiazol-3-yl}benzyl)-N-methylglycine, Hydrochloride salt] | 5.63 | 8.40 | 9.15
COCc1cc(-c2nc(-c3ccc(C(=O)NCCNC(C)=O)c(F)c3)no2)ccc1-c1ccccc1C [Example 174, N-[2-(acetylamino)ethyl]-2-fluoro-4-{5-[2-(methoxymethyl)-2′-methylbiphenyl-4-yl]-1,2,4-oxadiazol-3-yl}benzamide] | 5.85 | 7.77 | 8.47
Cc1cc(-c2nc(-c3ccc(C(=O)O)c(F)c3)no2)ccc1-c1cscc1C [Example 9, 2-fluoro-4-{5-[3-methyl-4-(4-methyl-3-thienyl)phenyl}-1,2,4-oxadiazol-3-yl]benzoic acid] | < 4.52 | 6.87 | 7.40
Cc1ccccc1-c1ccc(-c2nc(-c3ccc(C(=O)O)c(F)c3)no2)cc1C(F)(F)F [Example 22, 2-fluoro-4-{5-[2′-methyl-2-(trifluoromethyl)biphenyl-4-yl]-1,2,4-oxadiazol-3-yl}benzoic acid] | < 4.70 | 6.38 | 6.28
COCc1cc(-c2nc(-c3ccc(C(N)=O)c(F)c3)no2)ccc1-c1ccccc1C [Example 179, 2-fluoro-4-{5-[2-(methoxymethyl)-2′-methylbiphenyl-4-yl]-1,2,4-oxadiazol-3-yl}benzamide] | 6.56 | 8.10 | 8.52
Cc1ccccc1-c1ccc(-c2nc(-c3ccc(C(=O)O)c(Cl)c3)no2)cc1C [Example 68, 2-chloro-4-[5-(2,2′-dimethylbiphenyl-4-yl)-1,2,4-oxadiazol-3-yl]benzoic acid] | < 4.52 | 6.88 | 7.19
COCc1cc(-c2nc(-c3cccc(CNC4(C(=O)O)CC4)c3)no2)ccc1-c1ccccc1C [Example 151, 1-[(3-{5-[2-(methoxymethyl)-2′-methylbiphenyl-4-yl]-1,2,4-oxadiazol-3-yl}benzyl)amino]cyclopropanecarboxylic acid] | 6.76 | 8.32 | 8.19
COCc1cc(-c2nc(-c3cccc(CN(C)CCO)c3)no2)ccc1-c1ccccc1C [Example 186, 2-[(3-{5-[2-(methoxymethyl)-2′-methylbiphenyl-4-yl]-1,2,4-oxadiazol-3-yl}benzyl)(methyl)amino]ethanol, Hydrochloride salt] | 5.79 | 8.96 | 9.10
COc1cc(-c2nc(-c3ccc(C(=O)O)c(F)c3)no2)ccc1-c1cscc1C [Example 12, 2-fluoro-4-{5-[3-methoxy-4-(4-methyl-3-thienyl)phenyl]-1,2,4-oxadiazol-3-yl}benzoic acid] | < 4.52 | 6.83 | 7.22
COCc1cc(-c2nc(-c3ccc(C(=O)O)c(Cl)c3)no2)ccc1-c1ccccc1C [Example 69, 2-chloro-4-{5-[2-(methoxymethyl)-2′-methylbiphenyl-4-yl]-1,2,4-oxadiazol-3-yl}benzoic acid] | 5.58 | 7.47 | 7.59
CCOc1cc(-c2nc(-c3ccc(C(=O)O)c(F)c3)no2)ccc1-c1ccccc1C [Example 102, 4-[5-(2-ethoxy-2′-methylbiphenyl-4-yl)-1,2,4-oxadiazol-3-yl]-2-fluorobenzoic acid] | 5.75 | 7.24 | 7.96
COCc1cc(-c2nc(-c3ccc(C(=O)O)c(F)c3)no2)ccc1N1CCCCC1C (stereo not drawn) [Example 114, 2-fluoro-4-{5-[3-(methoxymethyl)-4-(2-methylpiperidin-1-yl)phenyl]-1,2,4-oxadiazol-3-yl}benzoic acid] | 5.55 | 7.89 | 8.57
COCc1cc(-c2nc(-c3ccc(C(=O)O)c(F)c3)no2)ccc1-c1cscc1C [Example 93, 2-fluoro-4-{5-[3-(methoxymethyl)-4-(4-methyl-3-thienyl)phenyl]-1,2,4-oxadiazol-3-yl}benzoic acid] | 5.86 | 7.74 | 8.00
CC1CCCCN1c1ccc(-c2nc(-c3ccc(C(=O)O)c(Cl)c3)no2)cc1NS(C)(=O)=O (stereo not drawn) [Example 70, 2-chloro-4-(5-{4-(2-methylpiperidin-1-yl)-3-[(methylsulfonyl)amino]phenyl}-1,2,4-oxadiazol-3-yl)benzoic acid] | 5.85 | 7.24 | 7.16
COCc1cc(-c2nc(-c3ccc(F)c(CN(C)CC(=O)O)c3)no2)ccc1-c1ccccc1C [Example 146, N-(2-fluoro-5-{5-[2-(methoxymethyl)-2′-methylbiphenyl-4-yl]-1,2,4-oxadiazol-3-yl}benzyl)-N-methylglycine, Hydrochloride salt] | 6.37 | 8.60 | 9.10
COCc1cc(-c2nc(-c3ccc(C(=O)O)c(F)c3)no2)ccc1-c1ccccc1F [Example 81, 2-fluoro-4-{5-[2′-fluoro-2-(methoxymethyl)biphenyl-4-yl]-1,2,4-oxadiazol-3-yl}benzoic acid] | 5.56 | 6.94 | 7.55
